According to PMC8838534, “Unprecedented Epimerization of an Azithromycin Analogue: Synthesis, Structure and Biological Activity of 2′-Dehydroxy-5″-Epi-Azithromycin” (Molecules, 2022):
In brackets after ≈: the same amount, converted by molar mass. Several values for one entry are separate records, joined by “and”; a condition that tells them apart may be missing. Equal entries are not always repeated.

How the values were obtained:
[1] = system: neutrophil accumulation in BALF of cigarette-smoke-challenged mice; test: Cigarette-smoke-induced pulmonary inflammation; type: in vivo, mouse; settings: oral dosing 2 h prior smoke challenge on each smoke day
[2] = system: Moraxella catarrhalis (ATCC23246); test: Antimicrobial activity, CLSI broth microdilution MIC; type: cell-based
Description: (§1) The Clinical and Laboratory Standards (CLSI) recommended procedure (Document M7-[…], Methods for Dilution Susceptibility Tests for Bacteria that Grow Aerobically) by broth microdilution was used to determine the antimicrobial activity of compounds against Escherichia coli (ATCC25922), Staphylococcus aureus (ATCC13709), Streptococcus pneumoniae (ATCC49619), Streptococcus pyogenes (ATCC700294), Moraxella catarrhalis (ATCC23246) and Haemophilus influenzae (ATCC49247). The minimum inhibitory concentration (MIC) is determined as the lowest concentration of compound that inhibited visible growth.

[3] = system: Staphylococcus aureus (ATCC13709); test: as above; type: cell-based; settings: read-out: MIC S. aureus
Description: as §1

[4] = system: Escherichia coli (ATCC25922); test: as above; type: cell-based
Description: as §1

[5] = system: Haemophilus influenzae (ATCC49247); test: as above; type: cell-based; settings: read-out: MIC H. influenzae
Description: as §1

[6] = system: Streptococcus pyogenes (ATCC700294); test: as above; type: cell-based; settings: read-out: MIC S. pyogenes
Description: as §1

[7] = system: Streptococcus pneumoniae (ATCC49619); test: as above; type: cell-based; settings: read-out: MIC S. penumoniae
Description: as §1

[8] = system: neutrophil accumulation in BALF of LPS-challenged BALB/cJ mice; test: LPS-induced pulmonary neutrophilia; type: in vivo, mouse (BALB/cJ); settings: 200 mg/kg intraperitoneally 2 h prior LPS, BALF 24 h after LPS
Experimental: Vehicle, azithromycin, and compound 4 were administered intraperitoneally at a dose of 200 mg/kg (b.w.) to 10-week-old male BALB/cJ mice (Charles River, Lyon, France) 2 h before intranasal challenge with 2 μg of LPS from E. coli. Then, 24 h after LPS application animals were euthanized and bronchoalveolar lavage was performed. Total number of cells in BALF was counted with a hematological analyzer (Sysmex SF 3000, Sysmex Corp., Kobe, Japan). Percentages of neutrophils were determined by morphological examination of at least 200 cells on smears prepared by cytocentrifugation (Cytospin-3, Thermo Fisher Scientific Inc, Waltham, MA, USA) and stained with Kwik-Diff staining set (Thermo Fisher Scientific Inc., USA).
All values are presented as means ± S.E.M. To define statistically significant differences in cell numbers among vehicle-treated and macrolide-treated mice the data were subjected to one-way ANOVA followed by Dunnett’s Multiple Comparison Test using GraphPad Prism version 5.00 for Windows (GraphPad Software, San Diego, CA, USA). The level of significance was set at p < 0.05 in all cases.

Pharmacokinetics in dog = type: in vivo, Beagle dogs
Pharmacokinetics in rat = type: in vivo, Sprague Dawley rats
Experimental: (§2) Pharmacokinetic profiles were determined in male Balb/c mice and CD Sprague-Dawley rats (Charles River Laboratories, Germany), following single oral (p.o.) and single intravenous (i.v.) bolus administration. The compound was administered at a dose of […] i.v. and 10 mg/kg p.o. Blood was obtained by serial blood sampling from the tail vein over a range of time points up to 30 h postdose. Samples were extracted by protein precipitation and subjected to quantitative analysis by LC-MS/MS using compound-specific mass transitions. Drug concentration−time profiles were generated and noncompartmental PK analysis used to generate estimates of half-life, clearance, volume of distribution, and oral bioavailability.

[9] = Pharmacokinetics in mouse; type: in vivo, Balb/c mice
Experimental: as §2

recombinant human CYP1A2 = molecular target: T1, recombinant human CYP1A2 (Homo sapiens, UniProt P05177); test: In vitro cytochrome inhibition; type: in vitro ADME; settings: recombinant human CYP, fluorescent probe; read-out: IC50 inhibition of cytochrome 1A2
T1 construct: purchased Cypex
T1 sequence (P05177 1-516): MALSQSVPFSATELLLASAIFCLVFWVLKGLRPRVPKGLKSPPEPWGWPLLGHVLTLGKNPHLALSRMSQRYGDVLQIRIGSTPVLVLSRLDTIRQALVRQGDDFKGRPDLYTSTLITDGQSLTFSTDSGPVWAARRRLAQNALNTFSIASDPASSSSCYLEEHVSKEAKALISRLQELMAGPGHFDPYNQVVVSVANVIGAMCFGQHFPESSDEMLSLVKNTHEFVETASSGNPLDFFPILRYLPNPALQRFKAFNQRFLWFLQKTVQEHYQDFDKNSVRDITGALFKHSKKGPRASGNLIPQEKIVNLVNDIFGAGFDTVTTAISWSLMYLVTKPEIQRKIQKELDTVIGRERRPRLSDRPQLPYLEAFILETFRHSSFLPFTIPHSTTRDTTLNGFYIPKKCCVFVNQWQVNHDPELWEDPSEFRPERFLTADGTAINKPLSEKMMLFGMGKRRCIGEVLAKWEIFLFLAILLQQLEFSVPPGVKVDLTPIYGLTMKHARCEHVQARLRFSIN
Experimental: (§3) Test compounds were incubated using a concentration range from 0.1 to 100 µM with recombinant human CYP1A2, 2C9, 2C19, 2D6 and 3A4 (Cypex). The compounds were preincubated at 37 °C for 5 or 10 min with the CYP enzyme isoforms, in the presence of 50 mM phosphate buffer (pH 7.4) and fluorescent probes. The incubations were started by addition of a cofactor solution containing NADP, glucose 6-phosphate and glucose 6-phosphate dehydrogenase. The plates were incubated for 10 min at 37 °C reading the fluorescence signal on a plate reader throughout. The fluorescence data were then used to calculate the IC50 values for each compound.

recombinant human CYP3A4 = molecular target: T2, recombinant human CYP3A4 (Homo sapiens, UniProt P08684); test: In vitro cytochrome inhibition; type: in vitro ADME; settings: recombinant human CYP, fluorescent probe; read-out: IC50 inhibition of cytochrome 3A4
T2 construct: purchased Cypex
Experimental: as §3

recombinant human CYP2D6 = molecular target: T3, recombinant human CYP2D6 (Homo sapiens, UniProt P10635); test: In vitro cytochrome inhibition; type: in vitro ADME; settings: recombinant human CYP, fluorescent probe; read-out: IC50 inhibition of cytochrome 2D6
T3 construct: purchased Cypex
Experimental: as §3

recombinant human CYP2C9 = molecular target: T4, recombinant human CYP2C9 (Homo sapiens, UniProt P11712); test: In vitro cytochrome inhibition; type: in vitro ADME; settings: recombinant human CYP, fluorescent probe; read-out: IC50 inhibition of cytochrome 2C9
T4 construct: purchased Cypex
Experimental: as §3

[10] = molecular target: T5, recombinant human CYP2C19 (Homo sapiens, UniProt P33261); test: In vitro cytochrome inhibition; type: in vitro ADME; settings: recombinant human CYP, fluorescent probe; read-out: IC50 inhibition of cytochrome 2C19
T5 construct: purchased Cypex
Experimental: as §3

T4 sequence (P11712 whole entry): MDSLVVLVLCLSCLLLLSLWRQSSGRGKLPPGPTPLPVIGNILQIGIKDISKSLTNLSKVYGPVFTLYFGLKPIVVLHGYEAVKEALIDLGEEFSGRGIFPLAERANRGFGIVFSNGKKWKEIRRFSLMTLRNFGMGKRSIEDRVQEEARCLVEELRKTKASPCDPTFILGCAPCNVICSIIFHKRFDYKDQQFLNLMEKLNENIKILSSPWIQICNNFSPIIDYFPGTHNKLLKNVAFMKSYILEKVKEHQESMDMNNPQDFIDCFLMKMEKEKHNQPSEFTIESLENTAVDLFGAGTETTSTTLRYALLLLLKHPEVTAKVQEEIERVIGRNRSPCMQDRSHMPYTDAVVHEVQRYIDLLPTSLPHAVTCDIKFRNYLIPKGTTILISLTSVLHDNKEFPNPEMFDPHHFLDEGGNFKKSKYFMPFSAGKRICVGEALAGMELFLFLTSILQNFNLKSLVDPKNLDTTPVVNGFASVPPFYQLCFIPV
T5 sequence (P33261 whole entry): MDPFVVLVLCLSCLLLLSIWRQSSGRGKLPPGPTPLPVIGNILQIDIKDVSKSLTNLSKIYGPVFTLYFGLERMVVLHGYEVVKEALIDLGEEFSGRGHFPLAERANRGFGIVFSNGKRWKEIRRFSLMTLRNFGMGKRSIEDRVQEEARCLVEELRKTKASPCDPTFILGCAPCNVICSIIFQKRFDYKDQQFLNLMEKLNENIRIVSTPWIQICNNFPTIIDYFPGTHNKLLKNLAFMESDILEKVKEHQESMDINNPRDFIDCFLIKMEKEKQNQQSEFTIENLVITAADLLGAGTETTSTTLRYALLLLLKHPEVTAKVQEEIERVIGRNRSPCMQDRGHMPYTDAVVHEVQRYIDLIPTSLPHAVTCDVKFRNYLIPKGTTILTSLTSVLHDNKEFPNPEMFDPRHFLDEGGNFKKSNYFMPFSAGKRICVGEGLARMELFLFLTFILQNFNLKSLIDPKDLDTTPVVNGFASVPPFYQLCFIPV
T2 sequence (P08684 whole entry): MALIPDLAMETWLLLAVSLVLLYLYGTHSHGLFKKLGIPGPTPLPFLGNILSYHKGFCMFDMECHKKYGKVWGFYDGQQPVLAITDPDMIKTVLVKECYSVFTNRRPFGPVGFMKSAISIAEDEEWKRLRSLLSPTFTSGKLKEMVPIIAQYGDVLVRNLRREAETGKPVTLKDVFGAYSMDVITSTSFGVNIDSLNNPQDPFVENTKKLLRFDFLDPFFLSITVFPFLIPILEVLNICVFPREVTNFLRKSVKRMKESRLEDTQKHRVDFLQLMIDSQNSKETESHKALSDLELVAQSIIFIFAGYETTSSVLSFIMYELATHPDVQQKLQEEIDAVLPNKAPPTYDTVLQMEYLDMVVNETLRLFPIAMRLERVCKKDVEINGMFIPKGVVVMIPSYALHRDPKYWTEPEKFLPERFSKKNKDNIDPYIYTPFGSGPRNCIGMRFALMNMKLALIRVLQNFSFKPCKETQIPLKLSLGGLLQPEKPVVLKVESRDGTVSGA
T3 sequence (P10635 whole entry): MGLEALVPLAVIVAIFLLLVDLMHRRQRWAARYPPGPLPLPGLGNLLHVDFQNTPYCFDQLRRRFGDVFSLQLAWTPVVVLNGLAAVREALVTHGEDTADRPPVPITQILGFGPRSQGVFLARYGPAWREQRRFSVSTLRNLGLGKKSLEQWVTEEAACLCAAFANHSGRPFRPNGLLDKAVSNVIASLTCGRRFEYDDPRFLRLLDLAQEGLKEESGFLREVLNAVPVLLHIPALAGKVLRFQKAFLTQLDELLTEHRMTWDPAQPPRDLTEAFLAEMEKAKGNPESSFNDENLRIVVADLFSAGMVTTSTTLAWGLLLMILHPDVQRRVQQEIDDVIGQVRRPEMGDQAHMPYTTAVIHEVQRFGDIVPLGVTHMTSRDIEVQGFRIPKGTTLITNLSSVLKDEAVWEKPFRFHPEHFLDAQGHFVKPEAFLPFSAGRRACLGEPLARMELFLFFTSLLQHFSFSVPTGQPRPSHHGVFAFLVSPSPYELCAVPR

Row | MIC [2] [µg/mL] | MIC [3] [µg/mL] | MIC [4] [µg/mL] | MIC [5] [µg/mL] | MIC [6] [µg/mL] | MIC [7] [µg/mL] | SMILES | Neutrophil accumulation in BALF after cigarette-smoke challenge [1] | other results
1 | < 0.125 | 0.5 (≈ 0.668 µM) | 2 (≈ 2.67 µM) | 2 (≈ 2.67 µM) | < 0.125 | < 0.125 | CC[C@H]1OC(=O)[C@H](C)[C@@H](O[C@H]2C[C@@](C)(OC)[C@@H](O)[C@H](C)O2)[C@H](C)[C@@H](O[C@@H]2O[C@H](C)C[C@H](N(C)C)[C@H]2O)[C@](C)(O)C[C@@H](C)CN(C)[C@H](C)[C@@H](O)[C@]1(C)O [AZM, azithromycin] | dose-dependently inhibited the accumulation of neutrophils | –
2 | 16 (≈ 21.8 µM) | > 64 | > 64 | > 64 | 64 (≈ 87.3 µM) | 32 (≈ 43.7 µM) | CC[C@H]1OC(=O)[C@H](C)[C@@H](O[C@H]2C[C@@](C)(OC)[C@@H](O)[C@H](C)O2)[C@H](C)[C@@H](O[C@H]2C[C@@H](N(C)C)C[C@@H](C)O2)[C@](C)(O)C[C@@H](C)CN(C)[C@H](C)[C@@H](O)[C@]1(C)O [compound 3, 2 ′-dehydroxy azithromycin] | – | –

Row | SMILES | MIC [2] [µg/mL] | MIC [3] [µg/mL] | MIC [4] [µg/mL] | MIC [5] [µg/mL] | MIC [6] [µg/mL] | MIC [7] [µg/mL] | Neutrophil accumulation in BALF after cigarette-smoke challenge [1] | other results
3 | CC[C@H]1OC(=O)[C@H](C)[C@@H](O[C@H]2C[C@@](C)(OC)[C@@H](O)[C@@H](C)O2)[C@H](C)[C@@H](O[C@H]2C[C@@H](N(C)C)C[C@@H](C)O2)[C@](C)(O)C[C@@H](C)CN(C)[C@H](C)[C@@H](O)[C@]1(C)O [compound 4, 2′-dehydroxy-5″-epi-azithromycin] | > 64 | > 64 | > 64 | > 64 | > 64 | > 64 | dose-dependently inhibited the accumulation of neutrophils | Neutrophil accumulation in BALF after intranasal LPS challenge [8]: inhibited neutrophil accumulation; Oral F (Pharmacokinetics in dog): 62% and 62 ± 10%; systemic clearance as % of liver blood flow (Pharmacokinetics in dog): ~18 % of liver blood flow; half-life (Pharmacokinetics in dog; beagle, in vivo): ~21 h; clearance (Pharmacokinetics in dog; beagle, in vivo, intravenous): 5.5 ± 0.9 mL/min/kg; Vd (Pharmacokinetics in dog; beagle, in vivo, intravenous, read-out: Vss): 6.9 ± 2 L/kg; systemic clearance as % of liver blood flow (Pharmacokinetics in rat): ~17.1 % of liver blood flow; half-life (Pharmacokinetics in rat; Sprague-Dawley, whole blood): ~15 h; Vd (Pharmacokinetics in rat; Sprague-Dawley, whole blood, intravenous, 2 mg/mg, read-out: Vss): 11.7 ± 1.9 L/kg; clearance (Pharmacokinetics in rat; Sprague-Dawley, whole blood, iv, 2 mg/mg, blood): 14.5 ± 8.5 mL/min/kg; systemic clearance as % of liver blood flow [9]: ca. 4.6 % of liver blood flow; Oral F ([9]; 10 mg/kg p.o., 10 mg/kg): 12% and 12.4 ± 4.2%; half-life ([9]; male, Balb/c, whole blood): ~11 h; Vd ([9]; male, Balb/c, whole blood, intravenous, 2 mg/mg, read-out: Vss): 2 ± 0.8 L/kg; clearance ([9]; male, Balb/c, whole blood, iv, 2 mg/mg, blood): 4.1 ± 1.1 mL/min/kg; IC50 (recombinant human CYP1A2): > 33 µM; IC50 (recombinant human CYP3A4): > 33 µM; IC50 (recombinant human CYP2D6): > 33 µM; IC50 (recombinant human CYP2C9): > 33 µM; IC50 [10]: > 33 µM
